Laboratory results published in PubChem BioAssay (NCI).
Several values for one entry are separate records, joined by “and”; a condition that tells them apart may be missing. Equal entries are not always repeated.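 Growth conditions: 96-well plates. Treatment: test compound, 48 hours, 5 concentrations. Analysis: linear interpolation between bracketing concentrations; unreached endpoints set to highest concentration. The concentration for 50% growth inhibition is given as GI50. TGI marks complete inhibition of growth.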

Assays:
Test in all cases: DTP human tumour cell line panel, 48 h
[1] = tested on: A498 renal
[2] = tested on: CAKI-1 renal
[3] = tested on: COLO 205 colon
[4] = tested on: IGROV1 ovarian
[5] = tested on: K-562 leukemia
[6] = tested on: KM12 colon
[7] = tested on: M14 melanoma
[8] = tested on: SK-MEL-2 melanoma
[9] = tested on: SNB-75 CNS
[10] = tested on: SR leukemia

SMILES	GI50 [1]	TGI [1]	GI50 [2]	TGI [2]	GI50 [3]	TGI [3]	GI50 [4]	TGI [4]	TGI [5]	TGI [6]	GI50 [7]	TGI [7]	TGI [8]	TGI [9]	TGI [10]	GI50 [6]	GI50 [8]	GI50 [9]	GI50 [10]	GI50 [5]
CN1CCc2cc3c(cc2C1O)OCO3 (stereo not drawn)	22.9 µM and > 100 µM	39.9 µM and > 100 µM	14.8 µM and > 100 µM	30.6 µM and > 100 µM	13.5 µM and > 100 µM	31.8 µM and > 100 µM	10.7 µM and > 100 µM	33.2 µM and > 100 µM	> 100 µM	22.5 µM and > 100 µM	16.7 µM and > 100 µM	37.8 µM and > 100 µM	13 µM and > 100 µM	17.9 µM and > 100 µM	> 100 µM					
COc1cc(-c2nn3c(/C=C4/C(=O)Nc5ccccc54)c(-c4ccc(C)cc4)nc3s2)cc(OC)c1OC	7.28 µM	36.7 µM	15.4 µM	> 100 µM			4.75 µM	> 100 µM		> 100 µM			30.9 µM	10.7 µM	> 100 µM	> 100 µM	16.3 µM	0.552 µM	2.35 µM	
CCCCCCCCCCCOC(=S)NC(C)C		39 µM		39.9 µM				49.9 µM	46.4 µM	37.7 µM		60.6 µM	40 µM	62.8 µM	44.3 µM					
OCCOc1ccc(-c2cc(-c3ccccn3)nc(-c3ccccn3)c2)cc1		17 µM		17.7 µM		6.29 µM		> 100 µM	11.4 µM	> 100 µM		3.91 µM	3.48 µM	26.1 µM	11.7 µM					
Nc1ncnc2c1ncn2C1OC(COP(=O)(O)CP(=O)(O)O)C(O)C1O (stereo not drawn)		> 100 µM		> 100 µM		> 100 µM		> 100 µM	> 100 µM	> 100 µM		> 100 µM	> 100 µM	> 100 µM	> 100 µM					
O=C(NCCCCCCCCNC(=O)c1cnc2ccccc2n1)c1cnc2ccccc2n1		> 100 µM		> 100 µM		> 100 µM		> 100 µM	> 100 µM	> 100 µM		> 100 µM	> 100 µM	> 100 µM	> 100 µM					
COc1ccc(/C(=N/NC(N)=O)C2(O)C(=O)Nc3ccc([N+](=O)[O-])cc32)cc1 (stereo not drawn)		87.5 µM		57.7 µM		53.4 µM		94.7 µM	58.8 µM	49.5 µM		31.1 µM	40.2 µM	69.8 µM	47.1 µM					
COc1cc2c(/C=N\N=C(N)N)c(Cl)[nH]c2cc1C	19.9 µM	35 µM	17 µM	32.7 µM	2.67 µM	8.82 µM	17.5 µM	49.9 µM	19.7 µM	22.6 µM	12.5 µM	25.2 µM	> 100 µM		8.22 µM	7.17 µM	34.5 µM		3.34 µM	4.36 µM
CC(C)[C@](O)(c1ccc2cc(OC(F)F)c(OC(F)F)cc2c1)c1cn[nH]n1	14.4 µM and 15.4 µM	28.2 µM and 29.2 µM	13 µM and 10.2 µM	37 µM and 34.5 µM	17 µM and 21.5 µM	33.9 µM and 43.2 µM	24.6 µM and 17.8 µM	70.7 µM and 44.5 µM	66.3 µM and 80.7 µM	41.7 µM and 31.2 µM	18.5 µM and 15.4 µM	42.2 µM and 32.6 µM	36.6 µM and 35 µM	36.1 µM and 27.1 µM	56.7 µM and 44.9 µM	20.3 µM and 15.2 µM	18.7 µM and 17.1 µM	11.8 µM and 9.7 µM	24.7 µM and 12.1 µM	20.1 µM and 24.8 µM
c1ccc(SC2(Sc3ccccc3)CCCC2)cc1		> 100 µM		> 100 µM		> 100 µM			> 100 µM	> 100 µM		> 100 µM	> 100 µM	> 100 µM	> 100 µM					
COc1cccc(C2CC(c3cc(OC)c(OC)c(OC)c3)=NN2)c1 (stereo not drawn)	12.9 µM	38.6 µM	14.7 µM	50.5 µM	18.7 µM	48.8 µM	2.02 µM	13.1 µM	> 100 µM	20.4 µM	48.8 µM	> 100 µM	54.6 µM	> 100 µM	14.1 µM	5.02 µM	13.2 µM	15.6 µM	3.09 µM	4.19 µM
CCCN(CCC)CCCNCc1cc(I)cc(C)c1O	11.6 µM	23.8 µM	14.6 µM	30.6 µM	13.8 µM	29 µM	15.6 µM	29.6 µM	19.4 µM	30 µM	12.8 µM	25.4 µM	36.3 µM	29 µM	21.2 µM	15 µM	20.1 µM	14.6 µM	7.18 µM	6.12 µM
C1OCC2S[C@@H]3COCO[C@@H]3C2O1 (stereo partly drawn)		> 100 µM		> 100 µM		> 100 µM			> 100 µM	> 100 µM		> 100 µM		> 100 µM	> 100 µM					
CO[C@H](C(=O)[C@@H](O)[C@@H](C)O)[C@@H]1Cc2cc3cc(O[C@H]4C[C@@H](O[C@H]5C[C@@H](O)[C@H](O)C(C)O5)[C@H](O)C(C)O4)c(C)c(O)c3c(O)c2C(=O)[C@H]1O[C@H]1C[C@@H](O[C@H]2C[C@@H](O[C@H]3C[C@@H](OC)[C@H](O)C(C)O3)[C@@H](O)C(C)O2)C(O)(O)C(C)O1 (stereo partly drawn)	0.0198 µM	0.115 µM	2.89 µM	> 17.3 µM	0.0833 µM	0.89 µM	0.116 µM	> 25 µM	> 25 µM	> 25 µM	0.275 µM	6.18 µM	0.592 µM	3.53 µM	> 25 µM	0.102 µM	0.0551 µM	0.148 µM	0.0932 µM	0.19 µM
O=C(O)CSCc1cccc2ccccc12		> 100 µM		> 100 µM		> 100 µM		> 100 µM	> 100 µM	> 100 µM		> 100 µM	> 100 µM	> 100 µM	> 100 µM					
O=C(O)c1ccccc1Cc1ccco1		> 100 µM		> 100 µM		> 100 µM		> 100 µM	> 100 µM	> 100 µM		> 100 µM	> 100 µM	> 100 µM	> 100 µM					

SMILES	GI50 [1]	TGI [1]	GI50 [2]	TGI [2]	GI50 [3]	TGI [3]	GI50 [4]	TGI [4]	TGI [5]	TGI [6]	GI50 [7]	TGI [7]	TGI [8]	TGI [9]	TGI [10]	GI50 [6]	GI50 [8]	GI50 [9]	GI50 [10]	GI50 [5]
CCC[CH2][Sn]([CH2]CCC)([O]C(=O)c1c(F)cccc1F)[O]C(=O)c1c(F)cccc1F	0.967 µM	2.16 µM	0.38 µM	1.7 µM	0.574 µM	1.74 µM	1.39 µM	3 µM	> 100 µM	2.83 µM	1.08 µM	2.26 µM	0.916 µM	1.82 µM	2.14 µM	1.51 µM	0.221 µM	0.509 µM	0.318 µM	0.355 µM
NNC(=S)N/N=C(\CCCC(=O)NCCc1ccccc1)CC(=O)c1ccccc1		> 100 µM				> 100 µM		> 100 µM		> 100 µM		> 100 µM	> 100 µM		> 100 µM					
CC[P+](C)(Cc1ccccc1)c1ccccc1 (stereo not drawn)		> 100 µM				> 100 µM		> 100 µM	> 100 µM	> 100 µM		> 100 µM	> 100 µM	> 100 µM	> 100 µM					
Cc1nc2ccc(CN(C)c3ccc(C(=O)N[C@@H](CCC(=O)O)C(=O)O)s3)cc2c(=O)[nH]1	> 100 µM	> 100 µM		> 100 µM		> 100 µM		> 100 µM	> 100 µM	> 100 µM		> 100 µM	> 100 µM	> 100 µM	> 100 µM					
COc1cc(/C(Cl)=C/C=C/C(=O)c2c(C)[n+]([O-])c3ccc(Cl)cc3[n+]2[O-])cc(OC)c1OC	15.7 µM	> 50 µM	1.66 µM	10.6 µM	10 µM	28.2 µM	3.78 µM	13.2 µM	6.24 µM	> 50 µM	3.68 µM	40.4 µM		19.6 µM	4.72 µM	5.07 µM		4.06 µM	1.47 µM	1.43 µM
COC(=O)Cc1cc(OC)c(OC)cc1Br		> 100 µM		> 100 µM		> 100 µM			> 100 µM	> 100 µM		> 100 µM	> 100 µM	> 100 µM	> 100 µM					
CC1=C(C(=O)NCc2ccccc2)C(c2ccc(C3C(C(=O)NCc4ccccc4)=C(C)NC(C)=C3C(=O)NCc3ccccc3)cc2)C(C(=O)NCc2ccccc2)=C(C)N1		31.7 µM		34.9 µM		21.3 µM		37.8 µM	> 100 µM	24.4 µM		24.1 µM	49.9 µM		20.7 µM					
Cc1ccccc1NC(=S)Nc1ccccn1	> 100 µM	> 100 µM	> 100 µM	> 100 µM	> 100 µM	> 100 µM	> 100 µM	> 100 µM	> 100 µM	> 100 µM	> 100 µM	> 100 µM	> 100 µM	> 100 µM	> 100 µM	> 100 µM	> 100 µM	> 100 µM	> 100 µM	> 100 µM
Nc1ccn(C2OC(CO)C(O)C2F)c(=O)n1 (stereo not drawn)	> 5000 µM	> 5000 µM	582 µM and > 5000 µM	> 5000 µM	688 µM	> 5000 µM	> 5000 µM	> 5000 µM	> 5000 µM	> 5000 µM	> 5000 µM	> 5000 µM	> 5000 µM	> 5000 µM	> 5000 µM	> 5000 µM	> 5000 µM	> 5000 µM	412 µM and 2500 µM	> 5000 µM
C=C1C(=O)O[C@H]2[C@H]1CC/C(CNC(=O)/C=C/c1ccc(Br)cc1)=C\CC[C@@]1(C)O[C@@H]21	0.236 µM	2.45 µM	1.12 µM	2.34 µM	0.987 µM	2.75 µM	1.24 µM	3.05 µM	> 33.4 µM	3.8 µM	1.11 µM	2.69 µM	3.02 µM	2.49 µM		1.87 µM	1.4 µM	1.23 µM	0.255 µM	0.438 µM
O=S(=O)(Nc1ncccn1)c1ccc(N=Nc2ccc(O)c3ncccc23)cc1	12.5 µM	27.2 µM	3.82 µM	21 µM	26.2 µM	> 100 µM	4.37 µM	33 µM	61.2 µM	29.8 µM	8.59 µM	26.6 µM	43.6 µM	11 µM	63 µM	5.87 µM	18.3 µM	2.01 µM	4.62 µM	3.23 µM
CC1=CC2CC(C)=C(CC[C@]3(C)CC[C@H]([C@@H](C)C(=O)O)OO3)C(C)(C)C2CC1 (stereo partly drawn)		3.14 µM		2.76 µM		1.36 µM		0.453 µM	0.471 µM	0.316 µM		2.67 µM	3.09 µM	2.29 µM	0.382 µM					
CC1=CCC[C@@]2(C)C(CC[C@@H]2C(C)/C=C/C(C)C)c2ccc(cc2C(=O)O)C[C@@H](O)CC1 (stereo partly drawn)		35.3 µM		32.9 µM				27.9 µM	26.4 µM	24.8 µM		34 µM	37.5 µM	27.4 µM	33 µM					
Cc1cc(C)nc(NC(N)=NCCc2ccccc2)n1	5.26 µM	39 µM	19.4 µM	97.5 µM	2.68 µM	12.5 µM			> 100 µM	> 100 µM	2.8 µM	24.2 µM	> 100 µM	9.75 µM	14.5 µM	3.62 µM	12.6 µM	2.08 µM	2.77 µM	3.56 µM
CC1[C@@H]2[C@@H](C=C3C4CCC5Cc6nc7c(nc6C[C@@]5(C)C4C[C@H](O)[C@]32CO)CC2CCC3C4=C[C@H]5O[C@@]6(O[C@@](C)(CO)C[C@@H]6O)C(C)[C@@]5(O)[C@]4(C)[C@@H](O)CC3[C@]2(C)C7)O[C@]12CCC(C)(C)O2 (stereo partly drawn)	0.00409 µM	0.0841 µM and 0.165 µM	0.0406 µM	> 3.65 µM	0.0423 µM	0.566 µM and 0.138 µM	0.0049 µM	> 3.65 µM		0.611 µM and > 3.65 µM		0.0639 µM	0.455 µM and 0.284 µM	0.0159 µM and 0.0134 µM	0.229 µM	0.17 µM	0.0114 µM	0.000741 µM		
